Where no end group is shown, it is not given here.
Test system: SCC cancer cells
Assay: Ex vivo flow cytometry of wild-type SCC and SCC FAK (−/−) tumors
Type: cell-based, mouse
Settings: for Fluorescence intensity of H5 inside SCC cancer cells (525 nm) / Freq cancer cells (GzmB-positive SCC cancer cells by H5 staining): H5 5 μM, 30 min; for Mean fluorescence intensity after incubation with probe H5: SCC (-/-) tumor digests
Description: P-values from two-tailed t-tests using Welch correction. Source data (c–f) provided as a Source Data file.
All animal work was carried out in compliance with UK Home Office guidelines. SCC tumors were established and labeled for flow cytometry as previously described. Briefly, 1 × 10^6 SCC cancer cells (obtained from Dr Alan Serrels at The University of Edinburgh) were injected subcutaneously into FVB/N mice (n = 4 for both WT and FAK (−/−) groups, Sex: female, Age: 10–14 weeks, obtained from Harlan UK), which were sacrificed 14 days post-implantation and tumors disaggregated to generate a single-cell suspension. […] Data analysis was performed using FlowJo V10 software. […]
and SCC7.1 FAK-/- tumors. All cells were gated on singlets and live cells (Zombie NIR viability dye, 1:1000 dilution). Wild-type SCC and SCC FAK-/- were gated as CD45− CD140a− (AF700 & BV650, respectively). All non-cancerous and non-fibrotic cells were gated on CD45+ (AF700). Monocytes were gated on CD11b+ (PerCP-Cy5.5) whilst the remaining cells were classified as CD8+ T cells (PE), CD4+ T cells (eFluor450) or immune cells (CD4−CD8− or CD4+CD8+).
(1 picture or pasted object on this page, not shown here)

IEPDAL [H5, FRET hexapeptide IEPDAL with BODIPY-FL fluorophore at the N-terminal end and Dabcyl quencher]
Fluorescence intensity of H5 inside SCC cancer cells (525 nm) (SCC FAK tumor, Data 1): 17211 | Freq cancer cells (GzmB-positive SCC cancer cells by H5 staining) (SCC FAK tumor, Data 1): 19% | Fluorescence intensity of H5 inside SCC cancer cells (525 nm) (SCC FAK tumor, Data 2): 15125 | Freq cancer cells (GzmB-positive SCC cancer cells by H5 staining) (SCC FAK tumor, Data 2): 45% | Fluorescence intensity of H5 inside SCC cancer cells (525 nm) (SCC FAK tumor, Data 3): 14692 | Freq cancer cells (GzmB-positive SCC cancer cells by H5 staining) (SCC FAK tumor, Data 3): 38% | Fluorescence intensity of H5 inside SCC cancer cells (525 nm) (SCC FAK tumor, Data 4): 14334 | Freq cancer cells (GzmB-positive SCC cancer cells by H5 staining) (SCC FAK tumor, Data 4): 41% | Fluorescence intensity of H5 inside SCC cancer cells (525 nm) (SCC tumor, Data 1): 5564 | Freq cancer cells (GzmB-positive SCC cancer cells by H5 staining) (SCC tumor, Data 1): 6% | Fluorescence intensity of H5 inside SCC cancer cells (525 nm) (SCC tumor, Data 2): 6027 | Freq cancer cells (GzmB-positive SCC cancer cells by H5 staining) (SCC tumor, Data 2): 4.5% | Fluorescence intensity of H5 inside SCC cancer cells (525 nm) (SCC tumor, Data 3): 5635 | Freq cancer cells (GzmB-positive SCC cancer cells by H5 staining) (SCC tumor, Data 3): 2.78% | Fluorescence intensity of H5 inside SCC cancer cells (525 nm) (SCC tumor, Data 4): 5745 | Freq cancer cells (GzmB-positive SCC cancer cells by H5 staining) (SCC tumor, Data 4): 3.77% | Mean fluorescence intensity after incubation with probe H5 (CD4 T cells, Data 1): 3345 | Mean fluorescence intensity after incubation with probe H5 (CD4 T cells, Data 2): 2508 | Mean fluorescence intensity after incubation with probe H5 (CD8 T cells, Data 1): 3289 | Mean fluorescence intensity after incubation with probe H5 (CD8 T cells, Data 2): 2980 | Mean fluorescence intensity after incubation with probe H5 (cancer cells, Data 1): 11273 | Mean fluorescence intensity after incubation with probe H5 (cancer cells, Data 2): 13796 | Mean fluorescence intensity after incubation with probe H5 (immune cells (CD8-CD4-CD11b-), Data 1): 3435 | Mean fluorescence intensity after incubation with probe H5 (immune cells (CD8-CD4-CD11b-), Data 2): 2496 | Mean fluorescence intensity after incubation with probe H5 (monocytes / macrophages, Data 1): 2362 | Mean fluorescence intensity after incubation with probe H5 (monocytes / macrophages, Data 2): 2247 | cancer cells labeled with probe H5 (SCC FAK (−/−) tumors, H5 30 min): over 40%

Source: publication PMC9061857, “A fluorogenic probe for granzyme B enables in-biopsy evaluation and screening of response to anticancer immunotherapies” (Nature Communications, 2022)
